Measurements from ChEMBL document CHEMBL4831556, “Discovery of a Novel Potent and Selective Calcium Release-Activated Calcium Channel Inhibitor: 2,6-Difluoro-N-(2'-methyl-3'-(4-methyl-5-oxo-4,5-dihydro-1,3,4-oxadiazol-2-yl)-[1,1'-biphenyl]-4-yl)benzamide. Structure-Activity Relationship and Preclinical Characterization” (J Med Chem, 2021).

What was measured:
[1] = Tmax in Lewis rat at 10 mg/kg, po measured upto 24 hrs by LC-MS/MS analysis; format: ADME, organism-based; settings: in vivo
Cytochrome P450 2A6 = target: T1, Cytochrome P450 2A6 (Homo sapiens, UniProt P11509); test: Inhibition of CYP2A6 in human liver microsomes at 10 uM by LC-MS/MS analysis; format: ADME
T1 sequence (P11509 whole entry): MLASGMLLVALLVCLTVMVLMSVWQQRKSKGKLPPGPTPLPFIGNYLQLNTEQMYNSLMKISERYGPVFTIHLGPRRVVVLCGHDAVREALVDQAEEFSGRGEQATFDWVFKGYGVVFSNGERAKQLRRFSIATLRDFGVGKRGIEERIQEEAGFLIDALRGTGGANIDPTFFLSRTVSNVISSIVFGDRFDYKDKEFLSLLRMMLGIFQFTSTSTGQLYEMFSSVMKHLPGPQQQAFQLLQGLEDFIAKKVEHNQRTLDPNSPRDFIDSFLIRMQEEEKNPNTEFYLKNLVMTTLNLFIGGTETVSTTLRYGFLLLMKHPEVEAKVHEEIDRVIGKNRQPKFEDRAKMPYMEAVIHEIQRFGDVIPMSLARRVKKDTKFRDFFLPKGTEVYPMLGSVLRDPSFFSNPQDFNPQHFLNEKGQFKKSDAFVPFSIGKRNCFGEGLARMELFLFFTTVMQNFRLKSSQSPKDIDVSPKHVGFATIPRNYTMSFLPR

[2] = Metabolic stability in monkey liver microsomes preincubated for 5 mins followed by NADPH addition and measured upto 30 mins by LC-MS/MS analysis; format: ADME, Macaca mulatta, Microsome; settings: rhesus monkey, 0.5 h, time <=35 min
[3] = Cmax in BALB/c mouse at 1 mg/kg, iv measured upto 24 hrs by LC-MS/MS analysis; format: ADME, organism-based; set-up: route intravenous, dose 1 mg/kg, time <=24; settings: in vivo
[4] = AUClast in BALB/c mouse at 1 mg/kg, iv measured upto 24 hrs by LC-MS/MS analysis; format: ADME, organism-based; set-up: route intravenous, dose 1 mg/kg, time <=24; settings: in vivo
Cytochrome P450 2C19 = Cytochrome P450 2C19 (Homo sapiens, UniProt P33261); test: Inhibition of CYP2C19 in human liver microsomes at 10 uM by LC-MS/MS analysis; format: ADME
Sequence of Cytochrome P450 2C19 (P33261 whole entry): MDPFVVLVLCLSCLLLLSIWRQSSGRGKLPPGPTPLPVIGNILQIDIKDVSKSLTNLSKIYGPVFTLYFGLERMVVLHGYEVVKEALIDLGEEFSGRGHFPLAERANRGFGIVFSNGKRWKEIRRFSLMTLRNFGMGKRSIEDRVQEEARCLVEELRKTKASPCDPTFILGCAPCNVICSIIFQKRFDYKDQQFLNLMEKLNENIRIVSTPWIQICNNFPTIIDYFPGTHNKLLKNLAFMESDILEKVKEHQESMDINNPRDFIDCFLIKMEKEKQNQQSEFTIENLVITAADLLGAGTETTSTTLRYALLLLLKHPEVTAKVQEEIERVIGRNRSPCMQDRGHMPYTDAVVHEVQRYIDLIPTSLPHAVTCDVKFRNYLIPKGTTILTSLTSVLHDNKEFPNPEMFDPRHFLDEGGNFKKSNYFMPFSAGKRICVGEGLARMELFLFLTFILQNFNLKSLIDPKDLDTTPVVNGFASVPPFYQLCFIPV

[5] = Apparent permeability across apical to basolateral side in human Caco-2 cells at 5 uM measured upto 120 mins in orbital shaker; format: ADME, cell-based
[6] = Tmax in BALB/c mouse at 10 mg/kg, po measured upto 24 hrs by LC-MS/MS analysis; format: ADME, organism-based; settings: in vivo
Cytochrome P450 1A2 = target: T2, Cytochrome P450 1A2 (Homo sapiens, UniProt P05177); test: Inhibition of CYP1A2 in human liver microsomes at 10 uM by LC-MS/MS analysis; format: ADME
T2 sequence (P05177 whole entry): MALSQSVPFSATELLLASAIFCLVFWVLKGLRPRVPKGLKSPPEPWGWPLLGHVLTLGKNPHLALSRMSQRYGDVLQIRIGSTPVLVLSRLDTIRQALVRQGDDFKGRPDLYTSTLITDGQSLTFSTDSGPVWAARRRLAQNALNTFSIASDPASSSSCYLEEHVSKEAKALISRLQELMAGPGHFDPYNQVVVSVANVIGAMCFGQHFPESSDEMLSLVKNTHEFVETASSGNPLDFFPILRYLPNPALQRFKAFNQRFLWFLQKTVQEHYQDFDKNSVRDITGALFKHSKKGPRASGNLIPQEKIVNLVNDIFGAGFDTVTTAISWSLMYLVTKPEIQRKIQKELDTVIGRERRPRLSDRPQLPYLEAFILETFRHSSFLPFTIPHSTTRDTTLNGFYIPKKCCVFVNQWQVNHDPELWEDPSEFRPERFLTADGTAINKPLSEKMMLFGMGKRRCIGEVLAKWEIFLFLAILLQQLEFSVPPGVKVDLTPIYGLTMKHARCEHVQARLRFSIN

[7] = Half life in BALB/c mouse at 1 mg/kg, iv measured upto 24 hrs by LC-MS/MS analysis; format: ADME, organism-based; settings: in vivo
Cytochrome P450 2D6 = Cytochrome P450 2D6 (Homo sapiens, UniProt P10635); test: Inhibition of CYP2D6 in human liver microsomes at 10 uM by LC-MS/MS analysis; format: ADME
Sequence of Cytochrome P450 2D6 (P10635 whole entry): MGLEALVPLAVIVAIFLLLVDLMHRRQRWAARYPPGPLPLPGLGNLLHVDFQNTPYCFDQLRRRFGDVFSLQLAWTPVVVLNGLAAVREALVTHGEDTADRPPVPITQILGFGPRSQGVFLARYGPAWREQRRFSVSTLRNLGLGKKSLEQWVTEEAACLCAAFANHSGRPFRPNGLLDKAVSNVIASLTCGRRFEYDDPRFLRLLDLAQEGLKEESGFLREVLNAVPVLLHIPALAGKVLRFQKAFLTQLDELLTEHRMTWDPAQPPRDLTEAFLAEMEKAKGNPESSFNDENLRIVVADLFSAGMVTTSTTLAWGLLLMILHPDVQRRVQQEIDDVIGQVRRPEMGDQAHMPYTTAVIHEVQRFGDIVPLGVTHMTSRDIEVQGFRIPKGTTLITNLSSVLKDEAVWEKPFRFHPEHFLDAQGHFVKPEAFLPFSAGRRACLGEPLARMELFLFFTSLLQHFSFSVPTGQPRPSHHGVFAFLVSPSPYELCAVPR

[8] = Clearance in BALB/c mouse at 1 mg/kg, iv measured upto 24 hrs by LC-MS/MS analysis; format: ADME, organism-based; settings: in vivo
[9] = Cmax in Lewis rat at 10 mg/kg, po measured upto 24 hrs by LC-MS/MS analysis; format: ADME, organism-based; set-up: route oral, dose 10 mg/kg, time <=24; settings: in vivo
Cytochrome P450 2B6 = target: T3, Cytochrome P450 2B6 (Homo sapiens, UniProt P20813); test: Inhibition of CYP2B6 in human liver microsomes at 10 uM by LC-MS/MS analysis; format: ADME
T3 sequence (P20813 whole entry): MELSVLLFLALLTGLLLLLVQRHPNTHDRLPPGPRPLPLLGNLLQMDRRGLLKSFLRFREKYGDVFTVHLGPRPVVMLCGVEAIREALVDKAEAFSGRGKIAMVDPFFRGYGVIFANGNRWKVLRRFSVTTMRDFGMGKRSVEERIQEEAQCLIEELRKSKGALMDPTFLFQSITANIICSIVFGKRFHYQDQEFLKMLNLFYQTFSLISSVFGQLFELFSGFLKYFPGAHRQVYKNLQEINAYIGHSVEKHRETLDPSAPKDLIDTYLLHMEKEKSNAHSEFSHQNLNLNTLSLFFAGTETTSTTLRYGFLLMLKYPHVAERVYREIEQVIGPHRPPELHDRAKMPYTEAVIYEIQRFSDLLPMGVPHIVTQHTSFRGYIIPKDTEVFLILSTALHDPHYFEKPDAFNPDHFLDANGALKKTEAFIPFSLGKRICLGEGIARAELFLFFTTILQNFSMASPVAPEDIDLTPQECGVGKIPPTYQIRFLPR

Cytochrome P450 2E1 = Cytochrome P450 2E1 (Homo sapiens, UniProt P05181); test: Inhibition of CYP2E1 in human liver microsomes at 10 uM by LC-MS/MS analysis; format: ADME
Sequence of Cytochrome P450 2E1 (P05181 whole entry): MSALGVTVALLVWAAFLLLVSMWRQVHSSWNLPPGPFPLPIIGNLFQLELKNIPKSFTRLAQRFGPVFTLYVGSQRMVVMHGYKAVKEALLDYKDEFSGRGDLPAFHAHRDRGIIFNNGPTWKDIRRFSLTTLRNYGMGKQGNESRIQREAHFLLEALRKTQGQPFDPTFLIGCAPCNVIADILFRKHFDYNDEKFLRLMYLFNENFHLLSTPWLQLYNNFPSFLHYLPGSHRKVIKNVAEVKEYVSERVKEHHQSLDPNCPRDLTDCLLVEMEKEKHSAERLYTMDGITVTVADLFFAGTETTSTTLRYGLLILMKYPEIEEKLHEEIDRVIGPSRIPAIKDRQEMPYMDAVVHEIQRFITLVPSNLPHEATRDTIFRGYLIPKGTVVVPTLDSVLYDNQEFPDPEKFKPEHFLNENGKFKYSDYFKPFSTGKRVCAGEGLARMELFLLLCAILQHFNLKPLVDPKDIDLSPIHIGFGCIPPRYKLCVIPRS

[10] = Tmax in Lewis rat at 1 mg/kg, iv measured upto 24 hrs by LC-MS/MS analysis; format: ADME, organism-based; settings: in vivo
[11] = Metabolic stability in human liver microsomes preincubated for 5 mins followed by NADPH addition and measured upto 30 mins by LC-MS/MS analysis; format: ADME, Microsome; settings: 0.5 h, time <=35 min
[12] = Plasma protein binding; format: ADME, cell-free; settings: read-out: PPB
[13] = AUClast in BALB/c mouse at 10 mg/kg, po measured upto 24 hrs by LC-MS/MS analysis; format: ADME, organism-based; set-up: route oral, dose 10 mg/kg, time <=24; settings: in vivo
[14] = Volume of distribution at steady state in Lewis rat at 1 mg/kg, iv measured upto 24 hrs by LC-MS/MS analysis; format: ADME, organism-based; settings: in vivo, read-out: Vdss
[15] = Half life in Lewis rat at 1 mg/kg, iv measured upto 24 hrs by LC-MS/MS analysis; format: ADME, organism-based; settings: in vivo
[16] = AUClast in Lewis rat at 10 mg/kg, po measured upto 24 hrs by LC-MS/MS analysis; format: ADME, organism-based; set-up: route oral, dose 10 mg/kg, time <=24; settings: in vivo
[17] = Apparent permeability across basolateral to apical side in human Caco-2 cells at 5 uM measured upto 120 mins in orbital shaker; format: ADME, cell-based
[18] = Half life in BALB/c mouse at 10 mg/kg, po measured upto 24 hrs by LC-MS/MS analysis; format: ADME, organism-based; settings: in vivo
[19] = Metabolic stability in mouse liver microsomes preincubated for 5 mins followed by NADPH addition and measured upto 30 mins by LC-MS/MS analysis; format: ADME, Microsome; settings: 0.5 h, time <=35 min

SMILES	Tmax [1]	inhibition (INH) (Cytochrome P450 2A6)	Stability [2]	Cmax [3]	AUC(0-t) at 24 h [4]	inhibition (INH) (Cytochrome P450 2C19)	Papp A→B at 2 h, 5 µM [5]	Tmax [6]	inhibition (INH) (Cytochrome P450 1A2)	half-life [7]	inhibition (INH) (Cytochrome P450 2D6)	clearance [8]	Cmax [9]	inhibition (INH) (Cytochrome P450 2B6)	inhibition (INH) (Cytochrome P450 2E1)	Tmax [10]	Stability [11]	fraction unbound [12]	AUC(0-t) at 24 h [13]	Vd [14]	other results
Cc1c(-c2ccc(NC(=O)c3c(F)cccc3F)cc2)cccc1-c1nn(C)c(=O)o1	8 h	Not Active	Stable	4.2 µM	7.1 µM·h	Not Active	14.1 ×10⁻⁶ cm/s	1 h	Not Active	6.4 h	Not Active	5.2 mL/min/kg	20 µM	Not Active	Not Active	4.8 min	Stable	0.01	56 µM·h	1 L/kg	half-life [15]: > 15 h; AUC(0-t) at 24 h [16]: 353 µM·h; Papp B→A at 2 h, 5 µM [17]: 6.2 ×10⁻⁶ cm/s; half-life [18]: 5.3 h; Stability [19]: Stable
Cc1c(-c2ccc(NC(=O)c3c(F)cccc3Cl)cc2)cccc1-c1nn(C)c(=O)o1	2 h	Not Active	Stable	4.3 µM	4 µM·h	Not Active	12.3 ×10⁻⁶ cm/s	1 h	Not Active	5 h	Not Active	8 mL/min/kg	10 µM	Not Active	Not Active	4.8 min	Stable	0.01	44 µM·h	1 L/kg	half-life [15]: 13 h; AUC(0-t) at 24 h [16]: 167 µM·h; Papp B→A at 2 h, 5 µM [17]: 4.5 ×10⁻⁶ cm/s; half-life [18]: 6 h; Stability [19]: Stable
